Entries after “also recorded” stand apart in the source; their conditions may differ.
What was measured:
[1] = test system: CD3/28-stimulated CD4^+CD25^− T cell proliferation; experiment: T cell suppression assay and function of MDSC sorted from spleens of treated mice; type: cell-based, mouse; conditions: data not shown
Protocol: Single cell suspensions of splenocytes or kidney cells were prepared using cell strainers (Fisher), followed by red blood cell lysis. Kidney lymphocytes were separated from connective tissue by centrifugation (15 minutes at 400g) in 30% Percoll (GE Healthcare). CD4^+CD25^− cells from spleen and kidney were isolated using the CD4^+CD25^+ regulatory T cell isolation kit according to manufacturer's protocol (Miltenyi). CD11b+ cells were isolated using EasySep mouse CD11b positive selection kit (StemCell Technologies), surface stained for Ly6C and Ly6G prior to sorting myeloid-derived suppressor cells (MDSC) using FACSAria II. Populations were >95% pure by FACS analysis. CD4^+CD25^− cells were labelled with 5 µM CFSE and stimulated with Dynabeads mouse T-cell activator CD3/CD28 (Invitrogen). Stimulated CD4^+CD25^− cells (4×10^4) were co-cultured with monocytic-MDSC(CD11b^+Ly6C^+Ly6G^−) or granulocytic-MDSC(CD11b^+Ly6C^+Ly6G^+) at a 1:1 ratio. Proliferation of CD4^+ cells was assayed after 4 days of incubation at 37° C., 5% CO2 by flow cytometry.

[2] = test system: leukocyte subsets present in kidney; experiment: Leukocyte subsets in kidney of treated BWF1 mice by flow cytometry; type: in vivo, mouse; parameters: Frequency of cells ± SEM: CD11c^+CD11b− (DC) / Frequency of cells ± SEM: CD11b^+Ly6C^+Ly6G− / Frequency of cells ± SEM: CD11b^+Ly6C^+Ly6G+ / Frequency of cells ± SEM: CD4+ / Frequency of cells ± SEM: CD8+ / Frequency of cells ± SEM: CD11b^+MDSC−(Mφ) / Frequency of cells ± SEM: CD11c^+CD11b+(DC): unit not given here; conditions: for Frequency of cells ± SEM: CD4+ / Frequency of cells ± SEM: CD8+ / Frequency of cells ± SEM: CD11b^+Ly6C^+Ly6G+ / Frequency of cells ± SEM: CD11b^+Ly6C^+Ly6G− / Frequency of cells ± SEM: CD11b^+MDSC−(Mφ) / Frequency of cells ± SEM: CD11c^+CD11b+(DC) / Frequency of cells ± SEM: CD11c^+CD11b− (DC) / Frequency of cells ± SEM: CD19+: kidney, LAQ 25 mg/kg, MMF 100 mg/kg
Protocol: Single cell suspensions of splenocytes or kidney cells were prepared using cell strainers (Fisher), followed by red blood cell lysis. Kidney lymphocytes were separated from connective tissue by centrifugation (15 minutes at 400g) in 30% Percoll (GE Healthcare). CD4^+CD25^− cells from spleen and kidney were isolated using the CD4^+CD25^+ regulatory T cell isolation kit according to manufacturer's protocol (Miltenyi). CD11b+ cells were isolated using EasySep mouse CD11b positive selection kit (StemCell Technologies), surface stained for Ly6C and Ly6G prior to sorting myeloid-derived suppressor cells (MDSC) using FACSAria II. Populations were >95% pure by FACS analysis.
Single-cell suspensions from spleen or kidneys were stained for extracellular markers for 20 min at 4° C. in PBS/1% FBS. Intracellular staining for Foxp3 and cytokines was performed using the Foxp3 Fixation/Permeabilization kit according to the manufacturer's protocol (eBioscience). Cells were acquired on a FACS LSR II (BD) and data was analyzed using Flowjo (Tree Star).

[3] = test system: lupus nephritis in BWF1 mice; experiment: Preventive treatment of pre-nephritic BWF1 mice (survival, proteinuria, creatinine, anti-dsDNA, renal histology, IgG/C3 deposition); type: in vivo, mouse; conditions: for Survival vs. controls: BWF1 females treated orally for 24 weeks before disease, p=0.028; for Survival vs. controls / Mice with proteinuria at 32 wks. of age: LAQ 1 and 25 mg/kg; for Survival, low dose treatment: LAQ 1 mg/kg 3 days a week, MMF 30 mg/kg 5 days a week, prior to anti-dsDNA and proteinuria; for Survival, low dose treatment / Chronic scarring (GS, FSGS, IFTA) in kidney / Serum/plasma IgG anti-dsDNA antibody levels: vs water; for Chronic scarring (GS, FSGS, IFTA) in kidney: higher doses, treated before proteinuria; for Onset of proteinuria beyond 32 weeks up until about 42 weeks: low dose: LAQ 1 mg/kg 3 times a week; for Serum/plasma IgG anti-dsDNA antibody levels / Prevention of proteinuria: preventive treatment; for Serum/plasma IgG anti-dsDNA antibody levels: LAQ 1 or 25 mg/kg; for Kidney specimens (histology, glomerular IgG and C3 deposits): after more than 50% of controls developed high proteinuria; for Mice with proteinuria at 32 wks. of age / Mean total histologic score (renal histology): treated before disease; for Mice with proteinuria at 32 wks. of age: water 50%, p<0.0001; for Mean total histologic score (renal histology): water 7.8, p<0.01; for Glomerular deposition of Ig and C3: treated prior to onset of clinical nephritis, vs water group p<0.001
Protocol: Clinical and immune cell changes were compared in groups of 10-12 BWF1 female mice in the following groups: • Group 1: Water orally 3 times a week for 24 weeks. • Group 2: Laquinimod 1 mg/kg orally 3 times a week for 24 weeks. • Group 3: Laquinimod 25 mg/kg orally 3 times a week for 24 weeks. • Group 4: Mycophenolate Mofetil 30 mg/kg orally […] for 24 weeks. • Group 5: Mycophenolate Mofetil 100 mg/kg orally […] for 24 weeks (“MMF 100”).
Preventive Group: 11-week old (pre-nephritic) BWF1 female mice were treated orally 3 times a week with a) water; b) laquinimod at 1 mg/kg (LAQ1, low dose) or c) 25 mg/kg (LAQ25, high dose) (Teva Pharmaceutical); or 5 times a week with d) mycophenolate mofetil at 30 mg/kg (MMF30, low dose) or e) 100 mg/kg (MMF100, high dose).
Proteinuria was evaluated weekly using Albustix (Siemens), serum creatinine using a commercial kit (Arbor Assays) and anti-dsDNA IgG antibodies by ELISA as described previously (10). See, e.g., FIGS. 1 and 2.
Kidney specimens of BWF1 mice (37 weeks of age in the prevention group or 7 and 11 weeks after institution of early or late therapies) were embedded in OCT compound and snap frozen. 4-5 μm an sections were air-dried, fixed with cold acetone and incubated with blocking buffer (anti-CD16/CD32 (1/50), 2% normal goat or rat serum, 2% BSA).
Immunoglobulin G and C3 complement glomerular deposition were investigated by incubation of cryosections with fluoroscein isothiocyanate (FITC)-conjugated goat anti-mouse IgG (1:50) (Sigma) or rat anti-mouse C3 (1:800) (Solulink) in blocking buffer for 2 hours at room temperature. Images were acquired using Nikon Eclipse TE2000-U microscope and MetaMorph 6.3 software (Sunnyvale, Calif.). Quantification of the area immunostained in tissue sections was made using the computer image analysis software ImageJ (rsbinfonihgov</>ij</>indexhtml). For histology, kidney sections were fixed in 10% formalin and 2 μm-paraffin sections were stained with H&E, PAS and methenamine silver (Jones) for histological analysis.
Histological analysis of glomerular pathology was done by an investigator blinded to treatment group and included acute inflammatory features (endocapillary hypercellularity, mesangial hypercellularity, cellular necrosis, cellular crescents, and interstitial inflammation), and chronic features (global glomerulosclerosis (GS), focal segmental glomerulosclerosis (FSGS), and interstitial fibrosis or tubular atrophy (IF/TA)). The severity of each feature was graded as 0 (absent), 1 (lesions involving up to 25% of the component evaluated), 2 (lesions in 26-50% evaluated) or 3 (lesions in >50%) in each field of the microscope at 400× magnification. The weighted total score of the clinical features was based on this formula: [endocapillary hypercellularity+mesengial hypercellularity+(cellular necrosis*2)+(cellular crescents*2)+interstitial inflammation)/5]+(GS+FSGS+IFTA)/3, with maximum score 5.2. A minimum of 25 glomeruli, of at least 10 mice per group, were scored. Scores from each individual mouse were added and averaged to yield the glomerulonephritis score.

[4] = Preventive, 25 weeks after treatment
[5] = Therapeutic (PU^lo), 10 wks after initiation of therapy
[6] = MMF 100 mg/kg, listed as Laquinimod
[7] = both LAQ doses (1, 25 mg/kg), MMF 100 mg/kg
[8] = preventive, LAQ 25 mg/kg, MMF 100 mg/kg

| Compound | Frequency of cells ± SEM: CD4+ [2, 4] | Frequency of cells ± SEM: CD8+ [2, 4] | Frequency of cells ± SEM: CD11b^+Ly6C^+Ly6G+ [2, 4] | Frequency of cells ± SEM: CD11b^+Ly6C^+Ly6G− [2, 4] | Frequency of cells ± SEM: CD11b^+MDSC−(Mφ) [2, 4] | Frequency of cells ± SEM: CD11c^+CD11b+(DC) [2, 4] | Frequency of cells ± SEM: CD11c^+CD11b− (DC) [2, 4] | Frequency of cells ± SEM: CD4+ [2, 5] | Frequency of cells ± SEM: CD8+ [2, 5] | Frequency of cells ± SEM: CD11b^+Ly6C^+Ly6G+ [2, 5] | Frequency of cells ± SEM: CD11b^+Ly6C^+Ly6G− [2, 5] | Frequency of cells ± SEM: CD11b^+MDSC−(Mφ) [2, 5] | Frequency of cells ± SEM: CD11c^+CD11b+(DC) [2, 5] | Frequency of cells ± SEM: CD11c^+CD11b− (DC) [2, 5] | Survival vs. controls ([3]; MMF 100 mg/kg) | Survival, low dose treatment [3] | Chronic scarring (GS, FSGS, IFTA) in kidney [3] | Onset of proteinuria beyond 32 weeks up until about 42 weeks ([3]; MMF 30 mg/kg) | Serum/plasma IgG anti-dsDNA antibody levels ([3]; MMF 100 mg/kg) | Prevention of proteinuria [3, 7] | further results |
| --- | --- | --- | --- | --- | --- | --- | --- | --- | --- | --- | --- | --- | --- | --- | --- | --- | --- | --- | --- | --- | --- |
| CCN(C(=O)c1c(O)c2c(Cl)cccc2n(C)c1=O)c1ccccc1 [LAQ, 5-chloro-N-ethyl-4-hydroxy-1-methyl-2-oxo-N-phenyl-1,2-dihydroquinoline-3-carboxamide] | 7.0 ± 0.5 | 4.2 ± 0.2 | 7.9 ± 1.9 | 44.4 ± 1.5 | 31.0 ± 1.8 | 0.7 ± 0.1 | 3.8 ± 0.2 | 2.8 ± 0.3 | 2.7 ± 0.2 | 13.6 ± 1.2 | 41.2 ± 0.4 | 28.4 ± 0.9 | 0.7 ± 0.1 | 1.2 ± 0.1 | better | significantly better; also recorded: still alive at 45 weeks | less | completely prevented onset of proteinuria | suppressed; also recorded: significantly lower; also recorded: lower anti-DNA levels | equivalent to MMF100 and completely prevented proteinuria and prevented the appearance of proteinuria and none | Production of arginase and reactive oxygen species (MDSC) [1]: not affected; Frequency of cells ± SEM: CD19+ [2, 4]: 4.0 ± 0.5; Frequency of cells ± SEM: CD19+ [2, 5]: 2.7 ± 0.2; Number of MM in the kidneys ([2]; mouse, in vivo): suppresses numbers of monocytes/macrophages; Phenotype of MM isolated from kidneys ([2]; mouse, in vivo): promoting change from M1 to M2 phenotypes; Number of MM in the kidneys ([2]; mouse, in vivo, listed as laquinimod): significantly reduced; Development of proteinuria six weeks after the treatment ([3]; FIG. 5, treated three days of each week prior to proteinuria): did not develop proteinuria; Serum/plasma IgG anti-dsDNA antibody levels [3, 6]: suppressed; Prevention of proteinuria ([3]; both LAQ doses (1, 25 mg/kg), MMF 100 mg/kg, listed as Laquinimod): equivalent to MMF 100; Kidney specimens (histology, glomerular IgG and C3 deposits) [3, 8]: largely unremarkable; Rise in serum creatinine levels ([3]; preventive, LAQ 25 mg/kg, after 18 weeks of treatment): significantly delayed; also recorded: prevented a rise in serum creatinine; Mice with proteinuria at 32 wks. of age ([3]; MMF 100 mg/kg): zero; Mice with proteinuria at 32 wks. of age [3, 6]: none; Mean total histologic score (renal histology) ([3]; MMF 100 mg/kg): 1.0; Glomerular deposition of Ig and C3 [3]: in the normal range; also recorded: significantly decreased; Glomerular deposition of Ig and C3 ([3]; listed as laquinimod): in the normal range |
| COc1c(C)c2c(c(O)c1C/C=C(\C)CCC(=O)OCCN1CCOCC1)C(=O)OC2 [MMF, mycophenolate mofetil, reference compound] | 19.4 ± 0.4 | 8.8 ± 0.1 | 1.6 ± 0.2 | 22.9 ± 0.8 | 49.8 ± 0.7 | 1.0 ± 0.1 | 4.4 ± 0.3 | 1.0 ± 0.1 | 6.6 ± 0.2 | 1.9 ± 0.3 | 22.4 ± 0.3 | 45.7 ± 0.9 | 0.6 ± 0.0 | 1.3 ± 0.1 | better | significantly better; also recorded: still alive at 45 weeks | less | effective in delaying onset of proteinuria | suppressed; also recorded: lower anti-DNA levels | prevented proteinuria and prevented the appearance of proteinuria and none | Frequency of cells ± SEM: CD19+ ([2]; Preventive, 25 weeks after treatment, in % (unit assumed)): 2.3 ± 0.2; Frequency of cells ± SEM: CD19+ ([2]; Therapeutic (PU^lo), 10 wks after initiation of therapy, in % (unit assumed)): 7.2 ± 0.4; Prevention of proteinuria ([3]; MMF 30 mg/kg, 18-week study period): did not; Kidney specimens (histology, glomerular IgG and C3 deposits) [3, 8]: largely unremarkable; Mice with proteinuria at 32 wks. of age ([3]; MMF 100 mg/kg): zero and none; Mean total histologic score (renal histology) ([3]; MMF 100 mg/kg): 0.9; Glomerular deposition of Ig and C3 [3]: in the normal range; also recorded: significantly decreased |

From patent US20130345257A1, “COMPOSITION FOR LUPUS NEPHRITIS AND METHODS OF MAKING AND USING THE SAME” (The Regents of the University of California, priority 2012, published 2013)
